Experimental data as given in PubChem BioAssay (NCI).
Values joined by “and” are separate entries in the source; they are usually repeats but may differ in a detail not shown here. Equal entries are not always repeated.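 Grown in 96-well plates, cells were treated for 48 hours with each compound at five concentrations. Insufficient inhibition: endpoint recorded as highest concentration tested. GI50 = concentration required for 50% inhibition of growth. The concentration for full growth arrest is given as TGI.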

Tests used:
Assay in all cases: inhibition of tumour cell growth, NCI panel, 48 h
A549 NSCLC = tested on: A549 NSCLC
LOX IMVI melanoma = tested on: LOX IMVI melanoma
MALME-3M melanoma = tested on: MALME-3M melanoma
NCI-H460 lung = tested on: NCI-H460 lung
OVCAR-3 ovarian = tested on: OVCAR-3 ovarian
OVCAR-5 ovarian = tested on: OVCAR-5 ovarian
SF-268 CNS = tested on: SF-268 CNS
SK-MEL-28 melanoma = tested on: SK-MEL-28 melanoma
SK-OV-3 ovarian = tested on: SK-OV-3 ovarian
SR leukemia = tested on: SR leukemia

Structure (SMILES)	GI50 (A549 NSCLC)	TGI (A549 NSCLC) [µM]	GI50 (LOX IMVI melanoma)	TGI (LOX IMVI melanoma)	GI50 (MALME-3M melanoma)	TGI (MALME-3M melanoma)	GI50 (NCI-H460 lung)	TGI (NCI-H460 lung)	GI50 (OVCAR-3 ovarian)	TGI (OVCAR-3 ovarian) [µM]	GI50 (OVCAR-5 ovarian)	TGI (OVCAR-5 ovarian)	GI50 (SF-268 CNS)	TGI (SF-268 CNS)	GI50 (SK-MEL-28 melanoma)	TGI (SK-MEL-28 melanoma)	GI50 (SK-OV-3 ovarian)	TGI (SK-OV-3 ovarian)	GI50 (SR leukemia)	TGI (SR leukemia)
CC[O-].CC[O-].[O-]c1ccccc1C=NC12CC3CC(CC(C3)C1)C2.[O-]c1ccccc1C=NC12CC3CC(CC(C3)C1)C2.[Ti+4]	> 100 µM	> 100	57.8 µM	> 100 µM	64.2 µM	> 100 µM	> 100 µM	> 100 µM	> 100 µM	> 100	> 100 µM	> 100 µM	92.5 µM	> 100 µM	> 100 µM	> 100 µM	> 100 µM	> 100 µM	29.2 µM	> 100 µM
COCCn1c(Nc2ccc(C(=O)NO)cc2)nc2ccccc21	4.9 µM	23	5.9 µM	19 µM	2.07 µM	9.02 µM	4.06 µM	30.4 µM	3.24 µM	14.1	1.69 µM	8.23 µM	4.9 µM	17.5 µM	4.94 µM	21 µM	3.45 µM	20.2 µM	1.69 µM	> 100 µM
CC(=O)Nc1ccc(CC[C@H]2CCC/C=C/[C@@H]3C[C@H](O)C[C@H]3[C@H](O)/C=C/C(=O)O2)cc1	0.309 µM	> 100	0.0912 µM	0.405 µM	0.257 µM	0.573 µM	0.365 µM	> 100 µM	0.217 µM	0.533	0.346 µM	> 66.4 µM	0.0594 µM	> 100 µM	0.0362 µM	0.197 µM	0.0667 µM	> 100 µM	0.215 µM	–
CCOc1cc(/C=C/C(=O)CC(=O)/C=C/c2ccc(OC(=O)CNc3nc4ccc(OC)cc4s3)c(OCC)c2)ccc1OC(=O)CNc1nc2ccc(OC)cc2s1	4.94 µM	31	3.28 µM	12.1 µM	12.3 µM	27.3 µM	5.1 µM	23.4 µM	4.45 µM	29	15.3 µM	34 µM	3.12 µM	25.8 µM	3.54 µM	12.2 µM	9.89 µM	53 µM	1.77 µM	4.66 µM
O=C(Nc1ccc(Nc2ccc3c(c2)C(=O)c2ccccc2C3=O)c2c1C(=O)c1ccccc1C2=O)c1ccccc1	–	> 100	–	> 100 µM	–	> 100 µM	–	35.4 µM	–	> 100	–	> 100 µM	–	> 100 µM	–	> 100 µM	–	> 100 µM	–	17.1 µM
Cc1cc(NC(=O)NCCCOc2ccc(N3C(N)=NC(N)=NC3(C)C)cc2Cl)ccc1S(=O)(=O)F	0.412 µM	> 100	0.479 µM	> 100 µM	1.84 µM	25.4 µM	0.259 µM	14.7 µM	2.79 µM	> 53.9	0.883 µM	> 100 µM	0.569 µM	> 58.9 µM	1.93 µM	28.5 µM	9.72 µM	> 82.3 µM	0.369 µM	> 46.2 µM
COc1ccc(CC(C)NCC(O)c2ccc(O)c(NC=O)c2)cc1 (configuration not stated)	–	> 100	–	> 100 µM	–	> 100 µM	–	> 100 µM	–	> 100	–	> 100 µM	–	> 100 µM	–	> 100 µM	–	> 100 µM	–	> 100 µM
COc1ccc(-c2nn3ncccc3c2-c2ccnc(Nc3ccc(F)c(F)c3)n2)cc1	7.52 µM	> 25	7.42 µM	> 25 µM	11.3 µM	> 25 µM	7.4 µM	> 25 µM	11.8 µM	> 25	11.6 µM	> 25 µM	14.2 µM	> 25 µM	17.8 µM	> 25 µM	10.5 µM	> 25 µM	18.7 µM	> 25 µM
N#Cc1nc2cc(Cl)c(Cl)cc2nc1-c1ccc(Cl)cc1	13.8 µM	> 46.6	71 µM	> 100 µM	> 42.2 µM	> 100 µM	37.6 µM	> 100 µM	1.89 µM	> 47.8	> 100 µM	> 100 µM	27.4 µM	> 72.7 µM	> 92 µM	> 100 µM	> 48.3 µM	> 80.5 µM	22 µM	53.1 µM
COc1cc2c(cc1OCCCCCOc1ccc(-c3nc4ccccc4s3)cc1)N=C[C@@H]1CCCN1C2=O	5.29 µM	20.4	0.983 µM	4.37 µM	12.5 µM	37.9 µM	1.27 µM	7.66 µM	1.54 µM	> 44	2.74 µM	19.2 µM	5.62 µM	31.6 µM	8.74 µM	31.7 µM	8.97 µM	> 25.6 µM	0.222 µM	1.43 µM
CC[C@@H]1C(=O)N(C)c2cnc(Nc3ccc(C(=O)NC4CCC(N5CCN(CC6CC6)CC5)CC4)cc3OC)nc2N1C(C)C (some centres not stated)	0.0308 µM and 0.0348 µM	–	0.0254 µM and 0.0339 µM	1.6 µM and 1.67 µM	0.607 µM and 1.39 µM	> 4.91 µM and 3.08 µM	0.0123 µM and 0.0297 µM	> 10 µM and 1.86 µM	0.013 µM and < 0.0161 µM	–	0.0146 µM and 0.0502 µM	> 10 µM and 16.9 µM	0.0586 µM and 0.0485 µM	> 10 µM and 7.8 µM	0.0737 µM and 0.0669 µM	2.64 µM and 3.16 µM	0.046 µM and 0.0354 µM	1.37 µM and 0.904 µM	0.0134 µM and 0.0123 µM	1.32 µM and 1.51 µM
C[C@]12CC[C@H]3[C@@H](CCC4=CC(=O)CC[C@@]43C)[C@]1(O)CC[C@]2(O)C(=O)CO	–	> 100	–	> 100 µM	–	> 100 µM	–	> 100 µM	–	> 100	–	> 100 µM	–	> 100 µM	–	> 100 µM	–	> 100 µM	–	> 100 µM
COc1cc(-c2csc(NC(=O)Nc3ccc(Cl)cc3)n2)cc(OC)c1OC	3.15 µM	13.4	2.59 µM	7.59 µM	2.11 µM	6.32 µM	3.32 µM	> 48.4 µM	2.54 µM	7.23	3.56 µM	21 µM	3.28 µM	20.8 µM	2.44 µM	7.12 µM	3 µM	8.91 µM	4.36 µM	> 100 µM
CN1CCN(c2ccc3nc(-c4[nH]ncc4Nc4ncnc5[nH]ccc45)[nH]c3c2)CC1	1.74 µM	15	0.148 µM	0.906 µM	0.379 µM	2.64 µM	2.68 µM	9.78 µM	0.233 µM	0.759	0.418 µM	9.19 µM	0.25 µM	0.803 µM	0.309 µM	1.75 µM	0.371 µM	12.7 µM	0.0472 µM	–
O=c1c(-c2cccc3ccccc23)c(-c2cccc3ccccc23)c1=O	–	12	–	27.3 µM	–	> 86.2 µM	–	4 µM	–	11.6	–	> 84.9 µM	–	> 53.7 µM	–	> 100 µM	–	26.1 µM	–	> 32 µM
O=C(Nc1ccccc1/C=C/c1n[nH]c2ccccc12)c1ccccc1	2.47 µM	13.6	2.48 µM	11.4 µM	4.05 µM	12 µM	2.15 µM	11.2 µM	5.26 µM	16.5	1.92 µM	12.9 µM	3.75 µM	17.3 µM	4.31 µM	17.7 µM	10.9 µM	22.8 µM	2.87 µM	13.7 µM
CC(NC(=O)c1ccc(Cl)c(Cl)c1)c1ccc(-c2ccccc2)cc1 (configuration not stated)	–	45.5	–	> 100 µM	–	49.1 µM	–	> 100 µM	–	66.2	–	> 100 µM	–	> 100 µM	–	> 100 µM	–	90.4 µM	–	40.3 µM
CCn1c(-c2nonc2N)nc2cnc(Oc3cccc(NC(=O)c4ccc(OCCN5CCOCC5)cc4)c3)cc21	2.52 µM	> 25	3.1 µM	> 25 µM	4.14 µM	> 25 µM	2.3 µM	> 25 µM	7.17 µM	> 25	5.22 µM	> 25 µM	0.724 µM	> 25 µM	> 20.1 µM	> 25 µM	7.33 µM	> 25 µM	0.886 µM	> 25 µM
O=C(O)c1c2c(c(O)c3c1CN(C1CCCCC1)CO3)OCN(C1CCCCC1)C2	–	> 100	–	39.7 µM	–	> 100 µM	–	35.1 µM	–	> 100	–	> 100 µM	–	> 100 µM	–	> 100 µM	–	> 100 µM	–	73 µM
C=C1C(=O)O[C@@H]2C[C@@]3(C)CCC[C@H](C)C3=C[C@H]12 (tested in a mixture with another compound)	–	18.6	–	11.7 µM	–	2.42 µM	–	14.3 µM	–	3.44	–	15.8 µM	–	7.2 µM	–	5.13 µM	–	22.7 µM	–	3.26 µM
O=c1[nH]c(=O)n(Cc2ccc(C34CC5CC(CC(C5)C3)C4)c(O)c2)cc1F	–	–	13.4 µM	27.2 µM	14.6 µM	30.9 µM	16.5 µM	43 µM	3.74 µM	17.8	16.1 µM	33.4 µM	18.5 µM	65.6 µM	4.62 µM	21.8 µM	21 µM	55.7 µM	5.32 µM	19.9 µM
CC(C)(C)CNCCO	–	> 100	–	> 100 µM	–	> 100 µM	–	> 100 µM	–	> 100	–	> 100 µM	–	> 100 µM	–	> 100 µM	–	> 100 µM	–	> 100 µM
Cc1ccc(/C=C/C(=O)c2ccc(F)cc2)s1	4.22 µM	17.6	1.87 µM	3.59 µM	1.74 µM	3.74 µM	3.24 µM	10.6 µM	1.8 µM	3.29	5.39 µM	18.6 µM	2.19 µM	4.91 µM	2.94 µM	7.31 µM	15.4 µM	37.9 µM	2.86 µM	20 µM
CN(N=O)C(=O)NC(CCCCNC(=O)OCc1ccccc1)C(=O)OCc1ccccc1 (configuration not stated)	–	> 100	–	37.1 µM	–	89.6 µM	–	> 100 µM	–	98.1	–	> 100 µM	–	–	–	56.1 µM	–	> 100 µM	–	58.4 µM
c1ccc2[nH]c(-c3ccc(Nc4nc(N5CCCC5)nc5[nH]ncc45)cc3)nc2c1	0.329 µM	1.22	–	–	0.314 µM	1.3 µM	0.412 µM	1.77 µM	0.753 µM	2.81	1.23 µM	2.87 µM	0.62 µM	2.42 µM	0.181 µM	0.338 µM	2.55 µM	4.87 µM	0.254 µM	0.87 µM
N#Cc1cnc2ccc(NCc3cnc[nH]3)cc2c1Nc1ccc(F)c(Cl)c1	–	–	5.62 µM	> 100 µM	11.9 µM	36.1 µM	10.3 µM	> 100 µM	3.38 µM	> 100	18.2 µM	> 100 µM	5.97 µM	> 100 µM	17.3 µM	58.4 µM	4.2 µM	> 100 µM	5.65 µM	> 100 µM
COc1ccc(C(O)C(c2ccc(OCc3ccccc3)cc2)c2ccc(OCc3ccccc3)cc2)cc1 (configuration not stated)	–	> 100	–	–	–	> 100 µM	–	> 100 µM	–	> 100	–	> 100 µM	–	> 100 µM	–	> 100 µM	–	> 100 µM	–	> 100 µM
CCOc1ccc2c(c1)[n+]([O-])c(C(N)=O)c(N)[n+]2[O-]	–	> 100	–	–	–	> 100 µM	–	> 100 µM	–	> 100	–	> 100 µM	–	> 100 µM	–	> 100 µM	–	> 100 µM	–	> 100 µM
